From ChEMBL document CHEMBL5329200, “Structure-guided design and synthesis of ATP-competitive N-acyl-substituted sulfamide d-alanine-d-alanine ligase inhibitors” (Bioorg Med Chem, 2023)

What was measured:
Staphylococcus aureus = assay: Inhibition of C-terminal hexahistidine-tagged recombinant Staphylococcus aureus Ddl expressed in Escherichia coli BL21(DE3) assessed as remaining activity using D-Ala as substrate at 250 uM incubated for 5 mins in presence of ATP by antimony phosphomolybdate assay (reference value: 100+/-2%)
[1] = Inhibition of C-terminal hexahistidine-tagged recombinant Staphylococcus aureus Ddl expressed in Escherichia coli BL21(DE3) using D-Ala as substrate in presence of ATP by PK/LDH couples assay

| Structure (SMILES) | Activity (Staphylococcus aureus) [%] | IC50 [1] [mM] |
| --- | --- | --- |
| Nc1ncnc2c1ncn2CCCCNS(=O)(=O)NC(=O)OCCc1ccc(Cl)c(Cl)c1 | 110 | – |
| CC1CNCCN1CCOC(=O)NS(=O)(=O)NCC[C@H]1O[C@@H](n2cnc3c(N)ncnc32)[C@H](O)[C@@H]1O (stereo partly drawn) | 76 | > 2.5 |
| COc1ccc(CCOC(=O)NS(=O)(=O)NCC[C@H]2O[C@@H](n3cnc4c(N)ncnc43)[C@H](O)[C@@H]2O)cc1 | 89 | – |
| N[C@@H]1CONC1=O [CYCLOSERINE] | 35 | 0.1 |
| CC1CN(C(=O)OC(C)(C)C)CCN1CCOC(=O)NS(=O)(=O)NCC[C@H]1O[C@@H](n2cnc3c(N)ncnc32)[C@H](O)[C@@H]1O (stereo partly drawn) | 95 | – |
| Nc1ncnc2c1ncn2[C@@H]1O[C@H](CCNS(=O)(=O)NC(=O)OCCc2ccccc2)[C@@H](O)[C@H]1O | 80 | > 2.5 |
| Cc1ccc(CCCOC(=O)NS(=O)(=O)NCC[C@H]2O[C@@H](n3cnc4c(N)ncnc43)[C@H](O)[C@@H]2O)cc1 | 82 | – |
| Nc1ncnc2c1ncn2[C@@H]1O[C@H](CCNS(=O)(=O)NC(=O)OCCc2ccccc2F)[C@@H](O)[C@H]1O | 84 | – |
| Nc1ncnc2c1ncn2[C@@H]1O[C@H](CCNS(=O)(=O)NC(=O)OCCc2ccccc2Cl)[C@@H](O)[C@H]1O | 87 | – |
| COc1ccc(CCCCOC(=O)NS(=O)(=O)NCC[C@H]2O[C@@H](n3cnc4c(N)ncnc43)[C@H](O)[C@@H]2O)cc1 | 90 | – |
| CC(C)(C)OC(=O)N[C@@H]1CON(CCO)C1=O | 90 | – |
| Nc1ncnc2c1ncn2[C@@H]1O[C@H](CCNS(=O)(=O)NC(=O)OCCCC2CCCC2)[C@@H](O)[C@H]1O | 79 | > 2.5 |
| Nc1ncnc2c1ncn2[C@@H]1O[C@H](CCNS(=O)(=O)NC(=O)OCCc2ccc(Cl)c(Cl)c2)[C@@H](O)[C@H]1O | 85 | – |
| Nc1ncnc2c1ncn2[C@@H]1O[C@H](CCNS(=O)(=O)NC(=O)OCCc2cccc(Cl)c2)[C@@H](O)[C@H]1O | 91 | – |

Now from value to molecule:

| Activity (Staphylococcus aureus) [%] | IC50 [1] [mM] | Structure (SMILES) |
| --- | --- | --- |
| 91 | – | CC(C)(C)OC(=O)NS(=O)(=O)NCC[C@H]1O[C@@H](n2cnc3c(N)ncnc32)[C@@H]2OC(C)(C)O[C@@H]21 |
| 63 | 2.2 | NCC[C@H]1O[C@@H](n2cnc3c(N)ncnc32)[C@H](O)[C@@H]1O |
| 72 | 1.6 | Nc1ncnc2c1ncn2[C@@H]1O[C@H](CCNS(N)(=O)=O)[C@@H](O)[C@H]1O |
| 82 | – | CC1(C)O[C@@H]2[C@H](O1)[C@@H](CCN)O[C@H]2n1cnc2c(N)ncnc21 |
| 89 | – | CC1(C)O[C@@H]2[C@H](O1)[C@@H](CCNS(=O)(=O)NC(=O)OCCc1ccc(Cl)c(Cl)c1)O[C@H]2n1cnc2c(N)ncnc21 |
| 70 | 1.7 | Nc1ncnc2c1ncn2[C@@H]1O[C@H](CCNS(=O)(=O)NC(=O)OCCN2OC[C@@H](N)C2=O)[C@@H](O)[C@H]1O |
| 96 | – | Nc1ncnc2c1ncn2[C@@H]1O[C@H](CCNS(=O)(=O)NC(=O)OCCCc2ccc(Cl)cc2)[C@@H](O)[C@H]1O |
